Experiments:
[1] = Differential scanning calorimetry (melt enthalpy, undercooling, percent solids index); assay type: physicochemical; settings: DSC, heating from solid, 5° C./min
Text: It is known in the art that alkoxylation has the potential to decrease the pour point of an ester. However, the current disclosure has observed a surprising decrease in the melting enthalpy and a marked reduction in the degree of undercooling. The degree of undercooling for a base oil indicates the increase in temperature required to fully melt an oil after crystallization has started. The degree of undercooling for the purpose of this disclosure is described as the difference between the temperature at which a material is fully melted on heating and the temperature at which the material begins to crystallize on cooling [Tmelt−Tonset=Undercool] as determined by differential scanning calorimetry (DSC) with a heating and cooling rate of 5° C./min. “Undercooling” and “degree of undercooling” can be used synonymously.
Oils with a lower undercooling require a smaller increase in temperature after crystallization to melt the oil and erase the oil “memory.” Shelby and Miller teach the concept of oil “memory” as a result of gels or crystals not fully dissociating even when above the melt point, so that on a second cooling cycle, gelation or crystal growth occurs much more quickly and at higher temperatures. If two oils have the same crystallization onset temperature, the oil with the lower undercooling will fully melt at a lower temperature and erase the oil “memory”. […] The effect of this is that glycerol esters and polyol esters must be heated substantially above the onset of crystallization in order to melt the oil before use. […] At 5° C. above the onset of crystallization temperature, 100% of Ex. 92 (glycerol ester) is solid; 31% of Ex 93 (PG3 ester) is solid; 18% of Ex. 94 (PG10 ester) is solid; and 81% of Ex 90 (TMP ester) is solid.
Examples 90, 92-94: Reductions in the enthalpy of melting are observed for propoxylated glycerol esters and TMP esters relative to the glycerol ester, see FIG. 19, Table 5, FIG. 20, Table 6 and FIG. 21, Table 7. […] DSC analysis was conducted within the temperature range −80° C. to 40° C. with cyclic cooling and heating rates of 5° C./min. The DSC melt thermograms for each material were integrated as a function of temperature and normalized to the overall melt enthalpy to generate a percent solids index that is the basis for the data in the Solids @ Onset+T columns. The data under Solids @ Onset+5 and +10° C. are indicative of the percent of solids in a base oil when heating from a fully solid or crystalline state. […] Both glycerol and TMP esters show higher degrees of undercooling and higher melt enthalpies compared to analogous propoxylated glycerol esters, see FIG. 20, Table 6.

[2] = literature value, cited from earlier work

percent solid at 5° C. above the onset of crystallization temperature [1] | percent solid at 10° C. above the crystallization onset temperature ([1]; listed as Ex 90) | percent solid at 10° C. above the crystallization onset temperature ([1]; listed as Ex. 92) | Structure (SMILES) | percent solid at 10° C. above the crystallization onset temperature [1] | Oxidative Onset Temperature (OOT) after formulation ([2]; formulated) | Oxidative Onset Temperature (OOT) ([2]; unformulated)
81% | 46% |  | CCCCCCCCCCCC(=O)OCC(CC)(COC(=O)CCCCCCCCCCC)COC(=O)CCCCCCCCCCC [Example 90] | significant amounts of crystalline solids |  | 
100% |  | not melted at all | CCCCCCCCCCCC(=O)OCC(COC(=O)CCCCCCCCCCC)OC(=O)CCCCCCCCCCC [Example 92] | significant amounts of crystalline solids |  | 
 |  |  | CCCCCCCC/C=C\CCCCCCCC(=O)OCC(CC)(COC(=O)CCCCCCC/C=C\CCCCCCCC)COC(=O)CCCCCCC/C=C\CCCCCCCC [TMP trioleates] |  | up to 206 °C | 156 °C

— patent US11680218B2, “Biodegradable lubricant with tailored hydrolytic stability and improved thermal stability through alkoxylation of glycerol” (Tetramer Technologies, LLC, priority 2018, dated 2023)
